Experiment: Inhibition of platelet aggregation (rabbit platelet-rich plasma),induced by arachidonic acid, (100% inhibitory response)
Settings: Oryctolagus cuniculus

First: CC(C)(C)OC(=O)CN1c2nc(-c3ccccc3)c(-c3ccccc3)nc2C(N)=NS1(=O)=O
Second: CCOC(=O)CN1c2nc(-c3ccccc3)c(-c3ccccc3)nc2C(N)=NS1(=O)=O
The EC100 of the first is 10-fold higher: 1 µg/mL for the first, 0.1 µg/mL for the second.

Compared with `NC(=O)CN1c2nc(-c3ccccc3)c(-c3ccccc3)nc2C(N)=NS1(=O)=O`, `CCN1c2nc(-c3ccccc3)c(-c3ccccc3)nc2C(N)=NS1(=O)=O` is 10-fold lower in EC100: 3 µg/mL for the first, 0.3 µg/mL for the second.

First: CN1c2nc(-c3ccco3)c(-c3ccco3)nc2C(N)=NS1(=O)=O
Second: COc1cccc(-c2nc3c(nc2-c2cccc(OC)c2)N(C)S(=O)(=O)N=C3N)c1
The EC100 of the first is lower: 1 µg/mL for the first, over 10 µg/mL for the second.

First: COc1ccc(-c2nc3c(nc2-c2ccc(OC)cc2)N(C)S(=O)(=O)N=C3N)cc1
Second: CN1c2nc(-c3ccc(Br)cc3)c(-c3ccc(Br)cc3)nc2C(N)=NS1(=O)=O
The EC100 of the first is 1000-fold lower: 0.001 µg/mL for the first, 1 µg/mL for the second.

First: CN1c2ncc(-c3ccccc3F)nc2C(N)=NS1(=O)=O
Second: CN1c2ncc(-c3ccccc3)nc2C(N)=NS1(=O)=O
The EC100 of the first is 10-fold lower: 0.03 µg/mL for the first, 0.3 µg/mL for the second.

`CCN1c2nc(C)c(-c3ccccc3)nc2C(N)=NS1(=O)=O` and `CCN1c2nc(-c3ccccc3)c(C)nc2C(N)=NS1(=O)=O` are the same in EC100: 1 µg/mL for the first, 1 µg/mL for the second.

`CCOC(=O)CN1c2nc(-c3ccccc3)cnc2C(N)=NS1(=O)=O` and `CCN1c2nc(-c3ccccc3)cnc2C(N)=NS1(=O)=O` cannot be ordered by EC100: over 10 µg/mL for the first, over 10 µg/mL for the second.

First: CCOc1nc2c(nc1-c1ccccc1)C(N)=NS(=O)(=O)N2C
Second: COc1nc2c(nc1-c1ccccc1)C(N)=NS(=O)(=O)N2C
The EC100 of the first is 3-fold higher: 0.3 µg/mL for the first, 0.1 µg/mL for the second.

Compared with `CCN1c2nc(-c3ccc(Cl)cc3)c(-c3ccc(Cl)cc3)nc2C(N)=NS1(=O)=O`, `CN1c2nc(-c3ccc(F)cc3)c(-c3ccc(F)cc3)nc2C(N)=NS1(=O)=O` is 10-fold lower in EC100: 3 µg/mL for the first, 0.3 µg/mL for the second.

First: CCOC(=O)CN1c2nc(-c3ccccc3)c(Br)nc2C(N)=NS1(=O)=O
Second: CCN1c2nc(-c3ccccc3)c(Br)nc2C(N)=NS1(=O)=O
The EC100 of the first is 10-fold higher: 10 µg/mL for the first, 1 µg/mL for the second.

`CCOc1nc2c(nc1-c1ccc(Cl)cc1)C(N)=NS(=O)(=O)N2CC` and `CCN1c2nc(-c3ccccc3)c(Cl)nc2C(N)=NS1(=O)=O` are the same in EC100: 10 µg/mL for the first, 10 µg/mL for the second.

Compared with `CN1c2nc(-c3ccccn3)c(-c3ccccn3)nc2C(N)=NS1(=O)=O`, `CCN1c2ncc(-c3ccccc3)nc2C(N)=NS1(=O)=O` is 3-fold lower in EC100: 3 µg/mL for the first, 1 µg/mL for the second.

`NC1=NS(=O)(=O)N(Cc2ccccc2)c2nc(-c3ccccc3)c(-c3ccccc3)nc21` and `CCN1c2nc(-c3cccs3)c(-c3cccs3)nc2C(N)=NS1(=O)=O` are the same in EC100: 3 µg/mL for the first, 3 µg/mL for the second.

In the case of `Cc1ccc(-c2cnc3c(n2)N(C)S(=O)(=O)N=C3N)cc1`, the EC100 is reported as over 10 µg/mL.
